Source: patent US9505744B2, “Solid state forms of vilazodone and vilazodone hydrochloride” (Assia Chemical Industries Ltd., priority 2011, dated 2016)
Counter-ions that a name gives are not always drawn.

What was measured:
Type in all cases: physicochemical
[1] = Chemical and polymorphic stability on exposure to heating and mechanical pressure; details: when exposed to heating and to mechanical pressure; hydrochloride
[2] = Compressibility: pressing samples with 1 ton for 60 minutes; details: for appearance of palettes after pressing: pressed with 1 ton for 60 minutes
Wettability = experiment: Wettability
[3] = Hausner ratio (tapped density / poured (bulk) density)
Source text: These properties enable improve tablet density uniformity, weight variation, homogeneity, die fill characteristics, dimensional control and ejection characteristics.

[4] = Polymorphic stability on exposure to humidity; details: 100% relative humidity for at least a few moths
Source text: Form Lambda doesn't convert to another polymorph when exposed to humidity.

Row | Compound | chemical and polymorphic stability [1] | compressibility ([2]; API pressed into a palette) | appearance of palettes after pressing [2] | degree of wettability (Wettability) | Hausner ratio (ratio between tapped density and poured (bulk) density) [3] | conversion to another polymorph when exposed to humidity [4]
1 | N#Cc1ccc2[nH]cc(CCCCN3CCN(c4ccc5oc(C(N)=O)cc5c4)CC3)c2c1 [Form Alpha, Vilazodone hydrochloride] | chemically and polymorphically stable | excellent compressibility | high structural order and shape without visible lamination on the surface or breaking of the palettes | enhanced degree of wettability |  | 
2 | N#Cc1ccc2[nH]cc(CCCCN3CCN(c4ccc5oc(C(N)=O)cc5c4)CC3)c2c1 [Form Lambda, Vilazodone hydrochloride] |  |  |  |  | favorable Hausner ratio | remains unchanged
3 | N#Cc1ccc2[nH]cc(CCCCN3CCN(c4ccc5oc(C(N)=O)cc5c4)CC3)c2c1 [Form Mu, Vilazodone hydrochloride] | high chemical and polymorphic stability |  | high structural order and shape without visible lamination on the surface or breaking of the palettes |  |  | 
